≈ marks a conversion by molar mass, not a printed value. Read-outs that look alike come from different tables or passages of the source.

Test [1] deals with Prot.mirab. H 3. As to the kind of experiment: agar serial dilution test. The format is cell-based, Proteus mirabilis. The conditions noted are these: Proteus mirabilis, 24 h, read-out: minimal inhibitory concentration (MIC), agar serial dilution, 24 hours, 37° C.
The subject of test [2] is Pseud.aerug. Wyeth A 1058. Nature of the test: agar serial dilution test. The conditions noted are these: 24 h, read-out: minimal inhibitory concentration (MIC). Format: cell-based.
Test [3] has as its system Staph.aureus A 2000. Nature of the test: agar serial dilution test. Format: cell-based, Staphylococcus aureus. Conditions: Staphylococcus aureus, A2000, 24 h, read-out: minimal inhibitory concentration (MIC).
In test [4] the test system is Shig.equir. T 3. As to the kind of experiment: agar serial dilution test. The format is cell-based. The conditions noted are these: 24 h, 37° C., read-out: minimal inhibitory concentration (MIC).
Test [5] concerns Strep.haem. A 266. Nature of the test: agar serial dilution test. The format is cell-based, Streptococcus haemolyticus. Conditions: Streptococcus, 24 h, read-out: minimal inhibitory concentration (MIC).
For test [6], the system named is Pseud.aerug. H 10. Nature of the test: agar serial dilution test. The conditions noted are these: 24 h, read-out: minimal inhibitory concentration (MIC). Format: cell-based.
For test [7], the system named is Kleb.pneum. A 809. Nature of the test: agar serial dilution test. The format is cell-based, Klebsiella pneumoniae. Conditions: Klebsiella pneumoniae, 24 h, read-out: minimal inhibitory concentration (MIC).
Test [8] has as its system Prot.morg. 2241. As to the kind of experiment: agar serial dilution test. The format is cell-based. Conditions: 24 h, read-out: minimal inhibitory concentration (MIC).
For test [9], the system named is Prot.mirab. L 93. Nature of the test: agar serial dilution test. Format: cell-based, Proteus mirabilis. Conditions: Proteus mirabilis, 24 h, read-out: minimal inhibitory concentration (MIC), agar serial dilution, 24 hours, 37° C.
Test [10] concerns Bac.Subt.ATCC 6633. As to the kind of experiment: agar serial dilution test. Format: cell-based, Bacillus subtilis. Conditions: Bacillus subtilis, ATCC6633, 24 h, read-out: minimal inhibitory concentration (MIC).
For test [11], the system named is Haem.infl. A 1030. As to the kind of experiment: micro serial dilution test. The conditions noted are these: 18 h, read-out: minimal inhibitory concentration (MIC). The format is cell-based.
The subject of test [12] is Esch.coli U 20. Nature of the test: agar serial dilution test. Conditions: Escherichia coli, U20, 24 h, read-out: minimal inhibitory concentration (MIC), agar serial dilution, 24 hours, 37° C. Format: cell-based, Escherichia coli.
Test [13] deals with Salm.dubl. P 43. As to the kind of experiment: agar serial dilution test. The format is cell-based, Salmonella dublin. Conditions: Salmonella enterica, 24 h, read-out: minimal inhibitory concentration (MIC).
In test [14] the test system is Prot.rettg. A 821. As to the kind of experiment: agar serial dilution test. The format is cell-based, Proteus rettgeri. Conditions: Providencia rettgeri, 24 h, read-out: minimal inhibitory concentration (MIC).
Test [15] deals with Dipl.pneum. L 54. Nature of the test: agar serial dilution test. The format is cell-based, Diplococcus pneumoniae. Conditions: Streptococcus pneumoniae, 24 h, read-out: minimal inhibitory concentration (MIC).
The subject of test [16] is Strep. faec. L 80. Nature of the test: agar serial dilution test. Format: cell-based, Streptococcus faecalis. Conditions: Enterococcus faecalis, 24 h, read-out: minimal inhibitory concentration (MIC).
The subject of test [17] is Pseud.aerug. 2396. As to the kind of experiment: agar serial dilution test. Format: cell-based. The conditions noted are these: 24 h, read-out: minimal inhibitory concentration (MIC).
For test [18], the system named is Staph.aureus A 355. As to the kind of experiment: agar serial dilution test. The conditions noted are these: Staphylococcus aureus, A355, 24 h, read-out: minimal inhibitory concentration (MIC).
Test [19] concerns Salm.typh. R 127. As to the kind of experiment: micro serial dilution test. The format is cell-based. Conditions: micro serial dilution (in brackets), about 18 hours, 30° C. or 37° C.; read-out: minimal inhibitory concentration (MIC). The text has this: (§1) Two drops of a stock solution of the test compound (antibiotic) in a known concentration were brought into the first hole of a test plate with 9 numbered holes with a sterile Pasteur pipette. After rinsing this pipette three times with a physiological NaCl-solution, two drops of a stock solution of the test organism in a culture medium were brought in all the holes except for hole 8. In the first hole, the solution of the tested compound had been half diluted, then by stirring the liquid in the first hole and adding two drops of this mixture to the second hole and so on until hole 8, dilutions of the test compound solution were obtained in geometrical progression. The hole 9 contained no antibiotic and served for checking the growth of the testogranism in a blank medium. The test plate was incubated at 30° C. or 37° C. for about 18 hours.

Test [20] deals with Staph.aureus A 321. As to the kind of experiment: agar serial dilution test. The conditions noted are these: Staphylococcus aureus, A321, 24 h, read-out: minimal inhibitory concentration (MIC). The format is cell-based, Staphylococcus aureus.
Test [21] has as its system Past.multo. A 723. As to the kind of experiment: agar serial dilution test. The conditions noted are these: Pasteurella multocida, 24 h, read-out: minimal inhibitory concentration (MIC). Format: cell-based, Pasteurella multocida.
The subject of test [22] is Bruc.melit. A 488. As to the kind of experiment: microbe, parasite or virus in culture. The conditions noted are these: Brucella melitensis, 24 h, read-out: minimal inhibitory concentration (MIC). The format is cell-based.
Test [23] concerns Kleb.pneum. A 809. As to the kind of experiment: micro serial dilution test. Format: cell-based. Conditions: Klebsiella pneumoniae; micro serial dilution (in brackets), about 18 hours, 30° C. or 37° C.; read-out: minimal inhibitory concentration (MIC).
Test [24] relates to Prot.rettg. A 821. Nature of the test: micro serial dilution test. Format: cell-based, Proteus rettgeri. The conditions noted are these: Providencia rettgeri; micro serial dilution (in brackets), about 18 hours, 30° C. or 37° C.; read-out: minimal inhibitory concentration (MIC).
Test [25] concerns Pseud.aerug. H 10. As to the kind of experiment: micro serial dilution test. Format: cell-based. Conditions: micro serial dilution (in brackets), about 18 hours, 30° C. or 37° C.; read-out: minimal inhibitory concentration (MIC).
Test [26] concerns Strep.haem. A 266. Nature of the test: micro serial dilution test. The format is cell-based, Streptococcus haemolyticus. Conditions: Streptococcus; micro serial dilution (in brackets), about 18 hours, 30° C. or 37° C.; read-out: minimal inhibitory concentration (MIC).
Test [27] concerns Dipl.pneum. L 54. Nature of the test: micro serial dilution test. The format is cell-based, Diplococcus pneumoniae. The conditions noted are these: Streptococcus pneumoniae; micro serial dilution (in brackets), about 18 hours, 30° C. or 37° C.; read-out: minimal inhibitory concentration (MIC).
For test [28], the system named is Pseud.aerug. 2396. As to the kind of experiment: micro serial dilution test. The format is cell-based. The conditions noted are these: micro serial dilution (in brackets), about 18 hours, 30° C. or 37° C.; read-out: minimal inhibitory concentration (MIC).
Test [29] concerns Prot.mirab. H 3. As to the kind of experiment: micro serial dilution test. The format is cell-based. The conditions noted are these: Proteus mirabilis; micro serial dilution (in brackets), about 18 hours, 30° C. or 37° C.; read-out: minimal inhibitory concentration (MIC).
The subject of test [30] is Staph.aureus A 355. As to the kind of experiment: micro serial dilution test. Format: cell-based, Staphylococcus aureus. The conditions noted are these: Staphylococcus aureus, A355; micro serial dilution (in brackets), about 18 hours, 30° C. or 37° C.; penicillinase-producing strain; read-out: minimal inhibitory concentration (MIC).
Test [31] relates to Esch.coli U 20. Nature of the test: micro serial dilution test. The format is cell-based. The conditions noted are these: Escherichia coli, U20; micro serial dilution (in brackets), about 18 hours, 30° C. or 37° C.; read-out: minimal inhibitory concentration (MIC).
Test [32] has as its system Bruc.melit. A 488. Nature of the test: microbe, parasite or virus in culture. The format is cell-based. Conditions: Brucella melitensis, 18 h, read-out: minimal inhibitory concentration (MIC).
For test [33], the system named is Pseud.aerug. Wyeth A 1058. Nature of the test: micro serial dilution test. Format: cell-based. The conditions noted are these: micro serial dilution (in brackets), about 18 hours, 30° C. or 37° C.; read-out: minimal inhibitory concentration (MIC).
Test [34] has as its system Prot.mirab. L 93. As to the kind of experiment: micro serial dilution test. The format is cell-based. The conditions noted are these: Proteus mirabilis; micro serial dilution (in brackets), about 18 hours, 30° C. or 37° C.; read-out: minimal inhibitory concentration (MIC).
The test system of test [35] is Salm.dubl. P 43. As to the kind of experiment: micro serial dilution test. Format: cell-based, Salmonella dublin. Conditions: Salmonella enterica; micro serial dilution (in brackets), about 18 hours, 30° C. or 37° C.; read-out: minimal inhibitory concentration (MIC).
Test [36] has as its system Past.multo. A 723. Nature of the test: micro serial dilution test. The format is cell-based. Conditions: Pasteurella multocida; micro serial dilution (in brackets), about 18 hours, 30° C. or 37° C.; read-out: minimal inhibitory concentration (MIC).
Test [37] relates to Shig.equir. T 3. As to the kind of experiment: micro serial dilution test. The format is cell-based. The conditions noted are these: micro serial dilution (in brackets), about 18 hours, 30° C. or 37° C.; read-out: minimal inhibitory concentration (MIC).
Source text: as §1

Test [38] concerns Prot.morg. 2241. Nature of the test: micro serial dilution test. Conditions: micro serial dilution (in brackets), about 18 hours, 30° C. or 37° C.; read-out: minimal inhibitory concentration (MIC). The format is cell-based.
The subject of test [39] is Bac.Subt.ATCC 6633. As to the kind of experiment: micro serial dilution test. The format is cell-based. The conditions noted are these: Bacillus subtilis, ATCC6633; micro serial dilution (in brackets), about 18 hours, 30° C. or 37° C.; read-out: minimal inhibitory concentration (MIC).
Test [40] deals with Strep. faec. L 80. Nature of the test: micro serial dilution test. The format is cell-based, Streptococcus faecalis. The conditions noted are these: Enterococcus faecalis; micro serial dilution (in brackets), about 18 hours, 30° C. or 37° C.; read-out: minimal inhibitory concentration (MIC).
Test [41] deals with Staph.aureus A 321. Nature of the test: micro serial dilution test. Format: cell-based. Conditions: Staphylococcus aureus, A321; micro serial dilution (in brackets), about 18 hours, 30° C. or 37° C.; read-out: minimal inhibitory concentration (MIC).

Take `CC1=C(C(=O)O)N2C(=O)[C@@H](NC(=O)[C@H](N)c3ccccc3)[C@H]2SC1` [Cefalexin, reference compound]: the MIC was 25 µg/mL (≈ 72 µM) in test [1]; greater than 100 µg/mL in test [2]; 12.5 µg/mL (≈ 36 µM) in test [3]; 1.5 µg/mL (≈ 4.32 µM) in test [4]; 0.25 µg/mL (≈ 0.72 µM) in test [5]; greater than 100 µg/mL in [6]. Besides, the MIC was 3 µg/mL (≈ 8.64 µM) in test [7]; greater than 100 µg/mL in test [8]; 12.5 µg/mL (≈ 36 µM) in test [9]; 0.5 µg/mL (≈ 1.44 µM) in test [10]; 125 µg/mL (≈ 360 µM) in test [11]; 12.5 µg/mL (≈ 36 µM) in test [12]. In addition, the MIC in [13] was 6 µg/mL (≈ 17.3 µM); in test [14] it was 12.5 µg/mL (≈ 36 µM); in test [15] it was 3 µg/mL (≈ 8.64 µM); in [16], 100 µg/mL (≈ 288 µM); in test [17] it was greater than 100 µg/mL; in test [18] it was 12.5 µg/mL (≈ 36 µM). In addition, the MIC in test [19] was found to be 6 µg/mL (≈ 17.3 µM); in test [20], 1.5 µg/mL (≈ 4.32 µM); in test [21] it was 3 µg/mL (≈ 8.64 µM); in [22], 6 µg/mL (≈ 17.3 µM).
As to `CC1(C)S[C@@H]2[C@H](NC(=O)Cc3ccccc3)C(=O)N2[C@H]1C(=O)O` [Penicillin G], the MIC in test [23] was 100 µg/mL (≈ 299 µM); in [24], 25 µg/mL (≈ 74.8 µM); in test [25] it was greater than 100 µg/mL; in test [26] it was 0.013 µg/mL (≈ 0.0389 µM); in [27], 0.13 µg/mL (≈ 0.389 µM); in [28] it was greater than 100 µg/mL. Further, the MIC in test [29] stood at 7.5 µg/mL (≈ 22.4 µM); in test [30] it was 10 µg/mL (≈ 29.9 µM); in test [11] (micro serial dilution (in brackets), about 18 hours, 30° C. or 37° C.) it was 0.5 µg/mL (≈ 1.5 µM); in [31], 40 µg/mL (≈ 120 µM); in [32] it was 0.25 µg/mL (≈ 0.748 µM); in [33], 100 µg/mL (≈ 299 µM). The MIC in test [34] is 0.5 µg/mL (≈ 1.5 µM); in test [35], 5 µg/mL (≈ 15 µM); in test [36], 0.2 µg/mL (≈ 0.598 µM); in test [37] it was 0.25 µg/mL (≈ 0.748 µM); in test [38], greater than 100 µg/mL; in [39], 0.006 µg/mL (≈ 0.0179 µM). The MIC was 4 µg/mL (≈ 12 µM) in [40] and 0.03 µg/mL (≈ 0.0897 µM) in [41].

For the origin of these results see patent US4160829A, “Antibacterial 1,2,4-oxadiazolylacetamido cephalosporins” (Gist-Brocades N.V., priority 1972, dated 1979).
